The subject of data set [1] is A549 human lung carcinoma cell line. Description: cytotoxicity with A549 cell monolayers. It counts as cell-based.
Data set [2] concerns Pneumocystis carinii. Description: in vitro inhibition of Pneumocystis carinii. It counts as cell-based. To be noted: ratio of cytotoxic A549 IC50 to P. carinii IC50.
Data set [3] relates to Pneumocystis carinii. As to conditions: read-out: IC50 P. carinii; P. carinii obtained from rat lungs; ref [15]; cited from earlier work.
In data set [4] the test system is Trypanosoma brucei rhodesiense KETRI 243. Description: in vitro inhibition of Trypanosoma brucei rhodesiense. It counts as cell-based. To be noted: T.b. rhodesiense KETRI 243 versus T.b. brucei LAB 110.
Another data set deals with Pneumocystis. As to conditions: immunosuppressed mouse, 20 mg/kg and 40 mg/kg doses; ref [1]; cited from earlier work.

Take `N=C(N)c1ccc(NC(=O)CCCCCCCCC(=O)Nc2ccc(C(=N)N)cc2)cc1` [Compound 12]: the “cytotoxicity against the A549 cell line (in words)” value (“cytotoxicity” for short) in data set [1] is listed as “very low cytoxicity”.
Regarding “N,N′-bis[4-(aminoiminomethyl)phenyl] hexanediamide [Compound 4]”, the “selectivity index for P. carinii (SIP.c)” value in the data set on Pneumocystis carinii [2] is 596,500. The IC50 in data set [1] is 1190 µM; in the data set with Pneumocystis carinii [3] it was 0.002 µM.
Turning to `N=C(N)c1ccc(NC(=O)CCCCCCC(=O)Nc2ccc(C(=N)N)cc2)cc1` [Compound 10], the “cytotoxicity” value in data set [1] is “very low cytoxicity”.
In the case of “N,N′-bis[4-(aminoiminomethyl)phenyl] pentanediamide, dihydrochloride salt [Compound 2]”, the “fold less active against the resistant strain” value in data set [4] is recorded as “about 11 fold”. In addition, in the data set on Pneumocystis carinii [2], the “selectivity index for P. carinii (SIP.c)” value is 758,667. The “cytotoxicity” value in data set [1] was “very low cytoxicity”. Further, the IC50 in the data set with Pneumocystis carinii [3] is 0.003 µM. Further, the “reductions in organism burden” value in the data set on Pneumocystis is listed as > 1,000 fold.
Take `N=C(N)c1ccc(OCCCCCOc2ccc(C(=N)N)cc2)cc1` [Pentamidine, reference compound]: the 50% inhibitory concentration (IC50) in the data set with Pneumocystis carinii [3] was 0.5 µM.
Regarding `N=C(N)c1ccc(NC(=O)CCCCCC(=O)Nc2ccc(C(=N)N)cc2)cc1` [Compound 9], the “cytotoxicity” value in data set [1] is “very low cytoxicity”.
Same read-out and setting: the result for `N=C(N)c1ccc(NC(=O)CCCCC(=O)Nc2cccc(C(=N)N)c2)cc1` [Compound 8] reads “very low cytoxicity”.

Usually IC50 stands for the concentration that inhibits the measured activity by half.

Values taken from publication PMC2753751 (Bioorganic & medicinal chemistry letters, 2009).
